# Measurements taken from patent US7138361B2, “Herbicidal heterocycles” (E. I. du Pont de Nemours and Company, priority 2000, dated 2006).
# What was measured:
# Format in all cases: in vivo
# [1] = test system: Sunflower; test: Test C preemergence; details: Rate 62 g/ha, scale 0 to 100
# [2] = test system: wheat (Triticum aestivum); test: Test B postemergence; details: Rate 125 g/ha, scale 0 to 100, 0 no effect, 100 complete control
# In short: (§1)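 Pre: seeded pots sprayed, chemical in non-phytotoxic solvent/surfactant mix. Post: plants 2–18 cm, 1–4 leaf, same formulation. Greenhouse 13–15 d; visual % control vs untreated, 0–100 scale.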
# [3] = test system: velvetleaf (Abutilon theophrasti); test: Test B postemergence; details: Rate 125 g/ha, scale 0 to 100, 0 no effect, 100 complete control
# In short: as §1
# [4] = test system: corn (Zea mays); test: Test B postemergence
# In short: as §1
# [5] = test system: giant foxtail (Setaria faberii); test: Test B postemergence; details: Rate 125 g/ha, scale 0 to 100, 0 no effect, 100 complete control
# In short: as §1
# [6] = test system: soybean (Glycine max); test: Test C preemergence; details: for Plant response rating (0 to 100), Soybean: Rate 500 g/ha, visual evaluation after 12 to 14 days
# In short: (§2)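 Plants held in greenhouse for 12–14 days post-application are scored by eye against controls on a 0–100 control scale. Application timing: preemergence on sown seed, or postemergence on 2–18 cm plants.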
# [7] = test system: common ragweed (Ambrosia elatior); test: Test C preemergence; details: for Plant response rating (0 to 100), Ragweed, Common: Rate 500 g/ha, visual evaluation after 12 to 14 days
# In short: as §2
# [8] = test system: woolly cupgrass (Eriochloa villosa); test: Test C preemergence; details: for Plant response rating (0 to 100), Cupgrass, Woolly: Rate 500 g/ha, visual evaluation after 12 to 14 days
# In short: as §2
# [9] = test system: johnsongrass (Sorghum halepense); test: Test C preemergence; details: for Plant response rating (0 to 100), Johnsongrass: Rate 500 g/ha, visual evaluation after 12 to 14 days
# In short: as §2
# [10] = test system: goosegrass (Eleusine indica); test: Test C preemergence; details: for Plant response rating (0 to 100), Goosegrass: Rate 500 g/ha, visual evaluation after 12 to 14 days
# In short: as §2
# [11] = test system: bermudagrass (Cynodon dactylon); test: Test C preemergence; details: for Plant response rating (0 to 100 where 0 is no effect and 100 is complete control), Bermudagrass: Rate 500 g/ha, visual evaluation after 12 to 14 days
# In short: as §2
# [12] = test system: crabgrass (Digitaria sanguinalis); test: Test C preemergence; details: for Plant response rating (0 to 100), Crabgrass: Rate 500 g/ha, visual evaluation after 12 to 14 days
# In short: as §2
# [13] = test system: velvetleaf (Abutilon theophrasti); test: Test C preemergence; details: for Plant response rating (0 to 100), Velvetleaf: Rate 500 g/ha, visual evaluation after 12 to 14 days
# In short: as §2
# [14] = test system: pigweed (Amaranthus retroflexus); test: Test C preemergence; details: for Plant response rating (0 to 100), Pigweed: Rate 500 g/ha, visual evaluation after 12 to 14 days
# In short: as §2
# [15] = test system: yellow nutsedge (Cyperus esculentus); test: Test C preemergence; details: for Plant response rating (0 to 100), Nutsedge: Rate 500 g/ha, visual evaluation after 12 to 14 days
# In short: as §2
# [16] = test system: Nightshade; test: Test C preemergence
# [17] = test system: cocklebur (Xanthium strumarium); test: Test C preemergence; details: for Plant response rating (0 to 100), Cocklebur: Rate 500 g/ha, visual evaluation after 12 to 14 days
# In short: as §2
# [18] = test system: lambsquarters (Chenopodium album); test: Test C preemergence; details: for Plant response rating (0 to 100), Lambsquarters: Rate 500 g/ha, visual evaluation after 12 to 14 days
# In short: as §2
# [19] = test system: giant foxtail (Setaria faberii); test: Test C preemergence; details: for Plant response rating (0 to 100), Foxtail, Giant: Rate 500 g/ha, visual evaluation after 12 to 14 days
# In short: as §2
# [20] = test system: Sunflower; test: Test C preemergence; details: Rate 125 g/ha; scale 0 to 100, 0 no effect, 100 complete control
# [21] = Rate 125 g/ha, scale 0 to 100, 0 no effect, 100 complete control
# [22] = Rate 500 g/ha, scale 0 to 100, 0 is no effect, 100 is complete control, 13 to 15 days
# [23] = preemergence, Rate 62 g/ha, scale 0 to 100
# [24] = preemergence, Rate 250 g/ha, scale 0 to 100, 0 no effect, 100 complete control
# [25] = Rate 250 g/ha, scale 0 to 100, 0 no effect, 100 complete control
structure (smiles),measurement,setting,value
COc1cc(N2CCC(n3ccc(C(C)(C)C)n3)C2=O)ccc1Cl (stereo not drawn) [Compound 117],"Plant response rating, Sunflower",[1],35
same,"Plant response rating, Wheat",[2],30
same,"Plant response rating, Velvetleaf",[3],70
same,"Plant response rating, Corn",[4]; [21],0
same,"Plant response rating, Corn",[4]; [22],0
same,"Plant response rating, Foxtail, Giant",[5],0
same,"Plant response rating, Soybean",[6]; [21],100
same,"Plant response rating, Soybean",[6]; [23],100
same,"Plant response rating (0 to 100), Soybean",[6]; preemergence,100
same,"Plant response rating, Soybean",[6]; [24],100
same,"Plant response rating, Ragweed, Common",[7]; [21],100
same,"Plant response rating, Ragweed, Common",[7]; [23],100
same,"Plant response rating (0 to 100), Ragweed, Common",[7]; preemergence,100
same,"Plant response rating, Ragweed, Common",[7]; [24],100
same,"Plant response rating, Cupgrass, Woolly",[8]; [21],100
same,"Plant response rating, Cupgrass, Woolly",[8]; [23],80
same,"Plant response rating (0 to 100), Cupgrass, Woolly",[8]; preemergence,100
same,"Plant response rating, Cupgrass, Woolly",[8]; [24],100
same,"Plant response rating, Johnsongrass",[9]; [21],50
same,"Plant response rating, Johnsongrass",[9]; [23],45
same,"Plant response rating (0 to 100), Johnsongrass",[9]; preemergence,90
same,"Plant response rating, Johnsongrass",[9]; [24],50
same,"Plant response rating, Goosegrass",[10]; [21],100
same,"Plant response rating, Goosegrass",[10]; [23],100
same,"Plant response rating (0 to 100), Goosegrass",[10]; preemergence,100
same,"Plant response rating, Goosegrass",[10]; [24],100
same,"Plant response rating, Bermudagrass",[11]; [21],100
same,"Plant response rating, Bermudagrass",[11]; [23],100
same,"Plant response rating (0 to 100 where 0 is no effect and 100 is complete control), Bermudagrass",[11]; preemergence,100
same,"Plant response rating, Bermudagrass",[11]; [24],100
same,"Plant response rating, Crabgrass",[12]; [21],100
same,"Plant response rating, Crabgrass",[12]; [23],100
same,"Plant response rating (0 to 100), Crabgrass",[12]; preemergence,100
same,"Plant response rating, Crabgrass",[12]; [24],100
same,"Plant response rating, Velvetleaf",[13]; [21],90
same,"Plant response rating, Velvetleaf",[13]; [23],80
same,"Plant response rating (0 to 100), Velvetleaf",[13]; preemergence,100
same,"Plant response rating, Velvetleaf",[13]; [24],100
same,"Plant response rating, Pigweed",[14]; [21],100
same,"Plant response rating, Pigweed",[14]; [23],100
same,"Plant response rating (0 to 100), Pigweed",[14]; preemergence,30
same,"Plant response rating, Pigweed",[14]; [24],100
same,"Plant response rating, Nutsedge",[15]; [21],0
same,"Plant response rating, Nutsedge",[15]; [23],0
same,"Plant response rating (0 to 100), Nutsedge",[15]; preemergence,0
same,"Plant response rating, Nutsedge",[15]; [24],0
same,"Plant response rating, Nightshade","[16]; Rate 62 g/ha, scale 0 to 100",100
same,"Plant response rating, Nightshade",[16]; [21],100
same,"Plant response rating, Nightshade",[16]; [25],100
same,"Plant response rating, Cocklebur",[17]; [21],10
same,"Plant response rating, Cocklebur",[17]; [23],0
same,"Plant response rating (0 to 100), Cocklebur",[17]; preemergence,85
same,"Plant response rating, Cocklebur",[17]; [24],50
same,"Plant response rating, Lambsquarters",[18]; [21],100
same,"Plant response rating, Lambsquarters",[18]; [23],100
same,"Plant response rating (0 to 100), Lambsquarters",[18]; preemergence,100
same,"Plant response rating, Lambsquarters",[18]; [24],100
same,"Plant response rating, Foxtail, Giant",[19]; [21],0
same,"Plant response rating, Foxtail, Giant",[19]; [23],100
same,"Plant response rating (0 to 100), Foxtail, Giant",[19]; preemergence,100
same,"Plant response rating, Foxtail, Giant",[19]; [24],100
same,"Plant response rating, Sunflower",[20],40
CCC(CC)c1ccn(C2CCN(c3ccc(Cl)c(OC)c3)C2=O)n1 (stereo not drawn) [Compound 118],"Plant response rating, Sunflower",[1],0
same,"Plant response rating, Wheat",[2],20
same,"Plant response rating, Velvetleaf",[3],40
same,"Plant response rating, Corn",[4]; [21],20
same,"Plant response rating, Corn",[4]; [22],20
same,"Plant response rating, Foxtail, Giant",[5],0
same,"Plant response rating, Soybean",[6]; [21],60
same,"Plant response rating, Soybean",[6]; [23],40
same,"Plant response rating (0 to 100), Soybean",[6]; preemergence,90
same,"Plant response rating, Soybean",[6]; [24],65
same,"Plant response rating, Ragweed, Common",[7]; [23],60
same,"Plant response rating (0 to 100), Ragweed, Common",[7]; preemergence,100
same,"Plant response rating, Ragweed, Common",[7]; [24],80
same,"Plant response rating, Cupgrass, Woolly",[8]; [21],90
same,"Plant response rating, Cupgrass, Woolly",[8]; [23],40
same,"Plant response rating (0 to 100), Cupgrass, Woolly",[8]; preemergence,100
same,"Plant response rating, Cupgrass, Woolly",[8]; [24],100
same,"Plant response rating, Johnsongrass",[9]; [21],40
same,"Plant response rating, Johnsongrass",[9]; [23],0
same,"Plant response rating (0 to 100), Johnsongrass",[9]; preemergence,100
same,"Plant response rating, Johnsongrass",[9]; [24],70
same,"Plant response rating, Goosegrass",[10]; [21],100
same,"Plant response rating, Goosegrass",[10]; [23],100
same,"Plant response rating (0 to 100), Goosegrass",[10]; preemergence,100
same,"Plant response rating, Goosegrass",[10]; [24],100
same,"Plant response rating, Bermudagrass",[11]; [21],100
same,"Plant response rating, Bermudagrass",[11]; [23],100
same,"Plant response rating (0 to 100 where 0 is no effect and 100 is complete control), Bermudagrass",[11]; preemergence,100
same,"Plant response rating, Bermudagrass",[11]; [24],100
same,"Plant response rating, Crabgrass",[12]; [21],100
same,"Plant response rating, Crabgrass",[12]; [23],100
same,"Plant response rating (0 to 100), Crabgrass",[12]; preemergence,100
same,"Plant response rating, Crabgrass",[12]; [24],100
same,"Plant response rating, Velvetleaf",[13]; [21],100
same,"Plant response rating, Velvetleaf",[13]; [23],20
same,"Plant response rating (0 to 100), Velvetleaf",[13]; preemergence,100
same,"Plant response rating, Velvetleaf",[13]; [24],100
same,"Plant response rating, Pigweed",[14]; [21],100
same,"Plant response rating, Pigweed",[14]; [23],75
same,"Plant response rating (0 to 100), Pigweed",[14]; preemergence,100
same,"Plant response rating, Pigweed",[14]; [24],100
same,"Plant response rating, Nutsedge",[15]; [21],0
same,"Plant response rating, Nutsedge",[15]; [23],0
same,"Plant response rating (0 to 100), Nutsedge",[15]; preemergence,0
same,"Plant response rating, Nutsedge",[15]; [24],0
same,"Plant response rating, Nightshade","[16]; Rate 62 g/ha, scale 0 to 100",100
same,"Plant response rating, Nightshade",[16]; [21],100
same,"Plant response rating, Nightshade",[16]; [25],100
same,"Plant response rating, Cocklebur",[17]; [21],0
same,"Plant response rating, Cocklebur",[17]; [23],0
same,"Plant response rating (0 to 100), Cocklebur",[17]; preemergence,0
same,"Plant response rating, Cocklebur",[17]; [24],0
same,"Plant response rating, Lambsquarters",[18]; [21],100
same,"Plant response rating, Lambsquarters",[18]; [23],100
same,"Plant response rating (0 to 100), Lambsquarters",[18]; preemergence,100
same,"Plant response rating, Lambsquarters",[18]; [24],100
same,"Plant response rating, Foxtail, Giant",[19]; [21],100
same,"Plant response rating, Foxtail, Giant",[19]; [23],0
same,"Plant response rating (0 to 100), Foxtail, Giant",[19]; preemergence,100
same,"Plant response rating, Foxtail, Giant",[19]; [24],100
same,"Plant response rating, Sunflower",[20],50
